Experimental data: US20100256183A1, “FUNGICIDAL 2-ALKYLTHIO-2-QUINOLINYLOXY-ACETAMIDE DERIVATIVES” (priority 2007, published 2010)
Like-named read-outs stand apart in the source and are kept apart here.

How the values were obtained:
[1] = test system: Septoria nodorum; experiment: Leaf disk assay, Septoria nodorum (wheat glume blotch); type: in vivo; details: for pest or weed control at 200 ppm: Parastagonospora nodorum, foliar, 96 h, read-out: control of fungal infection
[2] = test system: Pyricularia oryzae; experiment: whole plant or invertebrate; type: in vivo; details: foliar, 96 h, read-out: control of fungal infection
[3] = test system: Erysiphe graminis f.sp. tritici; experiment: Leaf disk assay, Erysiphe graminis f.sp. tritici (wheat powdery mildew); type: in vivo; details: Blumeria graminis, foliar, 96 h, read-out: control of fungal infection
[4] = test system: Pythium ultimum; experiment: Pythium ultimum (damping off) growth inhibition in potato dextrose broth, photometric; type: cell-based; details: Globisporangium ultimum, read-out: control of fungal infection
[5] = test system: Phytophthora infestans; experiment: whole plant or invertebrate; type: in vivo; details: in Solanum lycopersicum, foliar, 96 h, read-out: control of fungal infection
[6] = test system: Plasmopara viticola; experiment: Leaf disk assay, Plasmopara viticola (downy mildew of grapevine); type: in vivo; details: foliar, 168 h, read-out: control of fungal infection
[7] = 200 ppm, wheat leaf segments, preventive, four days after inoculation
[8] = 20 ppm, inhibition of growth after 48 hours at 24° C.
[9] = 200 ppm, grapevine leaf disks, preventive, seven days after inoculation
[10] = 20 ppm, preventive, four days after inoculation
[11] = 60 ppm, preventive, four days after inoculation
[12] = 200 ppm, preventive, four days after inoculation

Compound	pest or weed control at 200 ppm [2] [%]	pest or weed control at 200 ppm [5] [%]	pest or weed control at 200 ppm [3] [%]	pest or weed control at 200 ppm [6] [%]	inhibition of growth at 20 ppm ([4]; 48 h) [%]	also measured
C#CC(C)(C)NC(=O)C(Oc1cc(C)c2ncc(Br)cc2c1)SC (centres unmarked) [2(4), 2-(3-Bromo-8-methyl-quinolin-6-yloxy)-N-(1,1-dimethyl-prop-2-ynyl)-2-methylsulfanyl-acetamide]	≥ 60	≥ 60	–	–	–	pest or weed control at 200 ppm [1, 7]: ≥ 60%; pest or weed control at 200 ppm [3, 7]: ≥ 60%; inhibition of growth at 20 ppm [4, 8]: ≥ 60%; pest or weed control at 200 ppm [6, 9]: ≥ 60%
COCC#CC(C)(C)NC(=O)C(Oc1cc(C)c2ncc(Br)cc2c1)SC (centres unmarked) [3(4), 2-(3-Bromo-8-methyl-quinolin-6-yloxy)-N-(4-methoxy-1,1-dimethyl-but-2-ynyl)-2-methylsulfanyl-acetamide]	≥ 60	≥ 60	≥ 60	≥ 60	–	pest or weed control at 200 ppm [1]: ≥ 60%
CCC#CC(C)(C)NC(=O)C(Oc1cc(C)c2ncc(Br)cc2c1)SC (centres unmarked) [4(4), 2-(3-Bromo-8-methyl-quinolin-6-yloxy)-N-(1,1-dimethyl-pent-2-ynyl)-2-methylsulfanyl-acetamide]	–	–	–	≥ 60	–	–
COCCC#CC(C)(C)NC(=O)C(Oc1cc(C)c2ncc(Br)cc2c1)SC (centres unmarked) [5(4), 2-(3-Bromo-8-methyl-quinolin-6-yloxy)-N-(5-methoxy-1,1-dimethyl-pent-2-ynyl)-2-methylsulfanyl-acetamide]	–	≥ 60	≥ 60	≥ 60	≥ 60	–
C#CC(C)(CC)NC(=O)C(Oc1cc(C)c2ncc(Br)cc2c1)SC (centres unmarked) [7(4), 2-(3-Bromo-8-methyl-quinolin-6-yloxy)-N-(1-ethyl-1-methyl-prop-2-ynyl)-2-methylsulfanyl-acetamide]	≥ 60	–	–	–	–	pest or weed control at 200 ppm [1, 7]: ≥ 60%; pest or weed control at 200 ppm [3, 7]: ≥ 60%; pest or weed control at 200 ppm [6, 9]: ≥ 60%
CC#CC(C)(CC)NC(=O)C(Oc1cc(C)c2ncc(Br)cc2c1)SC (centres unmarked) [8(4), 2-(3-Bromo-8-methyl-quinolin-6-yloxy)-N-(1-ethyl-1-methyl-but-2-ynyl)-2-methylsulfanyl-acetamide]	–	–	–	≥ 60	–	pest or weed control at 200 ppm [1]: ≥ 60%
C#CC(C)(NC(=O)C(Oc1cc(C)c2ncc(Br)cc2c1)SC)C(C)C (centres unmarked) [12(4), 2-(3-Bromo-8-methyl-quinolin-6-yloxy)-N-(1-isopropyl-1-methyl-prop-2-ynyl)-2-methylsulfanyl-acetamide]	–	–	–	–	–	pest or weed control at 200 ppm [1, 7]: ≥ 60%; pest or weed control at 200 ppm [6, 9]: ≥ 60%
CC#CC(C)(C)NC(=O)C(Oc1cc(C)c2ncc(Cl)cc2c1)SC (centres unmarked) [18(4), 2-(3-Chloro-8-methyl-quinolin-6-yloxy)-N-(1,1-dimethyl-but-2-ynyl)-2-methylsulfanyl-acetamide]	≥ 60	≥ 60	≥ 60	≥ 60	≥ 60	pest or weed control at 200 ppm [1]: ≥ 60%
COCC#CC(C)(C)NC(=O)C(Oc1cc(C)c2ncc(Cl)cc2c1)SC (centres unmarked) [19(4), 2-(3-Chloro-8-methyl-quinolin-6-yloxy)-N-(4-methoxy-1,1-dimethyl-but-2-ynyl)-2-methylsulfanyl-acetamide]	–	≥ 60	≥ 60	≥ 60	≥ 60	–
CCC#CC(C)(C)NC(=O)C(Oc1cc(C)c2ncc(Cl)cc2c1)SC (centres unmarked) [20(4), 2-(3-Chloro-8-methyl-quinolin-6-yloxy)-N-(1,1-dimethyl-pent-2-ynyl)-2-methylsulfanyl-acetamide]	–	≥ 60	–	–	–	–
COCCC#CC(C)(C)NC(=O)C(Oc1cc(C)c2ncc(Cl)cc2c1)SC (centres unmarked) [21(4), 2-(3-Chloro-8-methyl-quinolin-6-yloxy)-N-(5-methoxy-1,1-dimethyl-pent-2-ynyl)-2-methylsulfanyl-acetamide]	–	≥ 60	≥ 60	≥ 60	≥ 60	–
CCOCC#CC(C)(C)NC(=O)C(Oc1cc(C)c2ncc(Br)cc2c1)SC (centres unmarked) [22(4), 2-(3-Bromo-8-methyl-quinolin-6-yloxy)-N-(4-ethoxy-1,1-dimethyl-but-2-ynyl)-2-methylsulfanyl-acetamide]	–	–	–	≥ 60	–	–
CSC(Oc1cc(C)c2ncc(Br)cc2c1)C(=O)NC(C)(C)C#C/C=C/CO (centres unmarked) [24(4), 2-(3-Bromo-8-methyl-quinolin-6-yloxy)-N-((E)-6-hydroxy-1,1-dimethyl-hex-4-en-2-ynyl)-2-methylsulfanyl-acetamide]	–	≥ 60	–	–	–	pest or weed control at 200 ppm [3, 7]: ≥ 60%; inhibition of growth at 20 ppm [4, 8]: ≥ 60%; pest or weed control at 200 ppm [6, 9]: ≥ 60%
COCCOCCC#CC(C)(C)NC(=O)C(Oc1cc(C)c2ncc(Br)cc2c1)SC (centres unmarked) [25(4), 2-(3-Bromo-8-methyl-quinolin-6-yloxy)-N-[5-(2-methoxy-ethoxy)-1,1-dimethyl-pent-2-ynyl]-2-methylsulfanyl-acetamide]	–	≥ 60	–	≥ 60	≥ 60	–
CSC(Oc1cc(C)c2ncc(Br)cc2c1)C(=O)NC(C)(C)C#CC(C)(O)CCl (centres unmarked) [27(4), 2-(3-Bromo-8-methyl-quinolin-6-yloxy)-N-(5-chloro-4-hydroxy-1,1,4-trimethyl-pent-2-ynyl)-2-methylsulfanyl-acetamide]	–	–	≥ 60	≥ 60	–	–
C=CCOCC#CC(C)(C)NC(=O)C(Oc1cc(C)c2ncc(Br)cc2c1)SC (centres unmarked) [28(4), N-(4-Allyloxy-1,1-dimethyl-but-2-ynyl)-2-(3-bromo-8-methyl-quinolin-6-yloxy)-2-methylsulfanyl-acetamide]	–	≥ 60	≥ 60	–	≥ 60	pest or weed control at 200 ppm [1]: ≥ 60%
C#CCOCC#CC(C)(C)NC(=O)C(Oc1cc(C)c2ncc(Br)cc2c1)SC (centres unmarked) [29(4), 2-(3-Bromo-8-methyl-quinolin-6-yloxy)-N-(1,1-dimethyl-4-prop-2-ynyloxy-but-2-ynyl)-2-methylsulfanyl-acetamide]	≥ 60	–	≥ 60	–	–	–
CSC(Oc1cc(C)c2ncc(Br)cc2c1)C(=O)NC(C)(C)C#CCO (centres unmarked) [30(4), 2-(3-Bromo-8-methyl-quinolin-6-yloxy)-N-(4-hydroxy-1,1-dimethyl-but-2-ynyl)-2-methylsulfanyl-acetamide]	≥ 60	≥ 60	≥ 60	–	≥ 60	pest or weed control at 200 ppm [1]: ≥ 60%
COCOCC#CC(C)(C)NC(=O)C(Oc1cc(C)c2ncc(Br)cc2c1)SC (centres unmarked) [31(4), 2-(3-Bromo-8-methyl-quinolin-6-yloxy)-N-(4-methoxymethoxy-1,1-dimethyl-but-2-ynyl)-2-methylsulfanyl-acetamide]	–	≥ 60	≥ 60	–	≥ 60	–
COCCOCOCC#CC(C)(C)NC(=O)C(Oc1cc(C)c2ncc(Br)cc2c1)SC (centres unmarked) [32(4), 2-(3-Bromo-8-methyl-quinolin-6-yloxy)-N-[4-(2-methoxy-ethoxymethoxy)-1,1-dimethyl-but-2-ynyl]-2-methylsulfanyl-acetamide]	–	≥ 60	≥ 60	≥ 60	–	–
C#CC(C)(C)NC(=O)C(Oc1cc(CC)c2ncc(Br)cc2c1)SC (centres unmarked) [33(4), 2-(3-Bromo-8-ethyl-quinolin-6-yloxy)-N-(1,1-dimethyl-prop-2-ynyl)-2-methylsulfanyl-acetamide]	≥ 60	–	–	–	–	pest or weed control at 200 ppm [1, 7]: ≥ 60%; pest or weed control at 200 ppm [3, 7]: ≥ 60%; inhibition of growth at 20 ppm [4, 8]: ≥ 60%; pest or weed control at 200 ppm [6, 9]: ≥ 60%
CC#CC(C)(C)NC(=O)C(Oc1cc(CC)c2ncc(Br)cc2c1)SC (centres unmarked) [34(4), 2-(3-Bromo-8-ethyl-quinolin-6-yloxy)-N-(1,1-dimethyl-but-2-ynyl)-2-methylsulfanyl-acetamide]	–	–	≥ 60	≥ 60	≥ 60	–
CCc1cc(OC(SC)C(=O)NC(C)(C)C#CCOC)cc2cc(Br)cnc12 (centres unmarked) [35(4), 2-(3-Bromo-8-ethyl-quinolin-6-yloxy)-N-(4-methoxy-1,1-dimethyl-but-2-ynyl)-2-methylsulfanyl-acetamide]	≥ 60	≥ 60	≥ 60	≥ 60	≥ 60	pest or weed control at 200 ppm [1]: ≥ 60%
C#CC(C)(C)NC(=O)C(Oc1ccc2ncc(Cl)cc2c1)SC (centres unmarked) [Compound 1(23), reference compound]	–	–	–	–	–	Efficacy (%) [1, 10]: 0%; Efficacy (%) [1, 11]: 0%; Efficacy (%) [1, 12]: 0%
C#CC(C)(C)NC(=O)C(Oc1cc(C)c2ncc(Cl)cc2c1)SC (centres unmarked) [Compound 17(4), 2-(3-Chloro-8-methyl-quinolin-6-yloxy)-N-(1,1-dimethyl-prop-2-ynyl)-2-methylsulfanyl-acetamide]	≥ 60	≥ 60	–	–	–	Efficacy (%) [1, 10]: 80%; Efficacy (%) [1, 11]: 100%; Efficacy (%) [1, 12]: 100%; pest or weed control at 200 ppm [1, 7]: ≥ 60%; pest or weed control at 200 ppm [3, 7]: ≥ 60%; inhibition of growth at 20 ppm [4, 8]: ≥ 60%; pest or weed control at 200 ppm [6, 9]: ≥ 60%
